Residues, ends and D or L forms follow the SMILES beside them. No end group written: not given here.

A word on the IC50: it is the concentration at which inhibition is half-maximal.

The subject of data set [1] is L-NAME-treated male Wistar rats. The data set can be described thus: Serum lipid profile, glucose, kidney and liver function and ORAC in L-NAME-treated rats. It counts as in vivo, rat. The note with it: mean, 3 weeks oral gavage, lisinopril 10 mg/kg BW/day, peptides 30 mg/kg BW/day, n = 5. How it is done: (§1) After 1 week of acclimation, 25 male Wistar rats were separated randomly into two groups of control rat (NC; n = 5) with distilled water and L-NAME-treated rat (n = 20). At this step, distilled water was orally gavaged to NC rat at 1 mL/100 g BW. L-NAME at a final concentration of 40 mg/kg BW in 1 mL distilled water was orally gavage to induce hypertension in rat at a dose of 40 mg/kg BW for 3 weeks. Thereafter, L-NAME treated rats were randomly classified into the following four groups: L-NAME untreated rat (HT; n = 5); L-NAME + lisinopril rat (HTD; n = 5); L-NAME + peptide 1 at 30 mg/kg rat (HTP1; n = 5); and L-NAME + peptide 2 at 30 mg/kg rat (HTP2; n = 5); for the remaining 3 weeks. NC (n = 5) was still orally gavaged with distilled water. The peptides were diluted in distilled water to obtain a final concentration of 30 mg/1 mL and immediately gavaged to rat at a dose of 30 mg/kg BW/day). Lisinopril was diluted in distilled water to obtain a final concentration of 10 mg/1 mL and immediately orally gavaged to rat at a dose of 10 mg/kg BW/day. At the end of the experiment, each rat was fasted for approximately 12–16 h and euthanized with CO2 inhalation. […] The separated serum was collected and preserved at − 80 °C until further analysis. Then, the liver, heart, spleen, and kidneys were collected, trimmed, washed with normal saline, wiped with filter paper, and weighed.
One thousand microlite of serum was used for measuring the lipid profiles, including total cholesterol, triglyceride (TG), low-density lipoprotein (LDL)-cholesterol (C), high-density lipoprotein (HDL)-C, glucose levels, kidney (blood urea nitrogen and creatinine concentrations) and liver function [alanine aminotransaminase (ALT), aspartate transaminase (AST), and alkaline phosphatase ([…])] parameters using the Cobas 6800/8800 systems (Roche Group, Switzerland). ORAC in rat serum was measured with a fluorescent microplate reader at Ex/Em = 480/520 nm, as previously mentioned.

Data set [2] has the same test system. The data set can be described thus: Serum nitrite/nitrate in L-NAME-treated rats. The note with it: mean ± standard error; 3 weeks oral gavage; lisinopril 10 mg/kg, peptide 30 mg/kg BW/day. It counts as in vivo, rat. How it is done:
as §1
(§2) The levels of nitrite and nitrate, which are metabolites of nitric oxide (NO), were measured using 50 µl of rat serum utilizing the calorimetric method (Nitrite/nitrate Kit, Sigma-Aldrich, 2 Science Park Dr, SG), according to company protocol. Angiotensin II peptide levels were quantified by using EIA kits (Angiotensin II EIA, Sigma-Aldrich, MO, USA), as per the manufacturer’s instructions).

Data set [3] shares this test system. The data set can be described thus: Serum angiotensin II peptide (EIA) in L-NAME-treated rats. Format: in vivo, rat. The note with it: median (interquartile range); 3 weeks oral gavage; lisinopril 10 mg/kg, peptides 30 mg/kg BW/day. The procedure: After 1 week of acclimation, 25 male Wistar rats were separated randomly into two groups of control rat (NC; n = 5) with distilled water and L-NAME-treated rat (n = 20). At this step, distilled water was orally gavaged to NC rat at 1 mL/100 g BW. L-NAME at a final concentration of 40 mg/kg BW in 1 mL distilled water was orally gavage to induce hypertension in rat at a dose of 40 mg/kg BW for 3 weeks. Thereafter, L-NAME treated rats were randomly classified into the following four groups: L-NAME untreated rat (HT; n = 5); L-NAME + lisinopril rat (HTD; n = 5); L-NAME + peptide 1 at 30 mg/kg rat (HTP1; n = 5); and L-NAME + peptide 2 at 30 mg/kg rat (HTP2; n = 5); for the remaining 3 weeks. NC (n = 5) was still orally gavaged with distilled water. The peptides were diluted in distilled water to obtain a final concentration of 30 mg/1 mL and immediately gavaged to rat at a dose of 30 mg/kg BW/day). […]
as §2

Data set [4] has the same test system. Briefly: Body weight of L-NAME-treated rats. It counts as in vivo, rat. The note with it: vs L-NAME-treated rats; 3 weeks treatment. How it is done: as §1
For data set [5] the test system is unchanged. Briefly: Organ weights of L-NAME-treated rats. The note with it: vs NC group; after 3 weeks treatment. Format: in vivo, rat. How it is done:
as §1

The test system is the same in data set [6]. Briefly: Platelet count and white blood cell levels of L-NAME-treated rats. It counts as in vivo, rat. As to conditions: effect of treatment in the L-NAME treated group; 3 weeks. The procedure: as §1
The target in another data set is T1, ACE (Homo sapiens, UniProt P12821).
T1 construct: purchased Dojindo Molecular Technology Inc., Kumamoto, Japan
Briefly: ACE inhibitory activity assay kit. It counts as biochemical. As to conditions: synthetic peptides; captopril positive control; read-out: IC50 ACE inhibition. How it is done:
ACE inhibitory activity assay kit (Dojindo Molecular Technology Inc., Kumamoto, Japan) was used for the measurement of ACE inhibition in proteins derived from basil leaves before and after digestion according to the company manual. Briefly, 10 µl of each sample, substrate buffer, and enzyme mixture were mixed and incubated in 96-well plate at 37 °C for 1 h before measuring ACE inhibition at 450 nm of absorption (A). The ACE inhibitory activity was calculated and calculated as follows: inhibitory activity (%) = [(Awithout sample − Awith sample)/(Awithout sample − Ablank)] × 100.

In data set [7] the target is Angiotensin-converting enzyme (UniProt P12821).
Sequence of Angiotensin-converting enzyme (P12821 30-1256): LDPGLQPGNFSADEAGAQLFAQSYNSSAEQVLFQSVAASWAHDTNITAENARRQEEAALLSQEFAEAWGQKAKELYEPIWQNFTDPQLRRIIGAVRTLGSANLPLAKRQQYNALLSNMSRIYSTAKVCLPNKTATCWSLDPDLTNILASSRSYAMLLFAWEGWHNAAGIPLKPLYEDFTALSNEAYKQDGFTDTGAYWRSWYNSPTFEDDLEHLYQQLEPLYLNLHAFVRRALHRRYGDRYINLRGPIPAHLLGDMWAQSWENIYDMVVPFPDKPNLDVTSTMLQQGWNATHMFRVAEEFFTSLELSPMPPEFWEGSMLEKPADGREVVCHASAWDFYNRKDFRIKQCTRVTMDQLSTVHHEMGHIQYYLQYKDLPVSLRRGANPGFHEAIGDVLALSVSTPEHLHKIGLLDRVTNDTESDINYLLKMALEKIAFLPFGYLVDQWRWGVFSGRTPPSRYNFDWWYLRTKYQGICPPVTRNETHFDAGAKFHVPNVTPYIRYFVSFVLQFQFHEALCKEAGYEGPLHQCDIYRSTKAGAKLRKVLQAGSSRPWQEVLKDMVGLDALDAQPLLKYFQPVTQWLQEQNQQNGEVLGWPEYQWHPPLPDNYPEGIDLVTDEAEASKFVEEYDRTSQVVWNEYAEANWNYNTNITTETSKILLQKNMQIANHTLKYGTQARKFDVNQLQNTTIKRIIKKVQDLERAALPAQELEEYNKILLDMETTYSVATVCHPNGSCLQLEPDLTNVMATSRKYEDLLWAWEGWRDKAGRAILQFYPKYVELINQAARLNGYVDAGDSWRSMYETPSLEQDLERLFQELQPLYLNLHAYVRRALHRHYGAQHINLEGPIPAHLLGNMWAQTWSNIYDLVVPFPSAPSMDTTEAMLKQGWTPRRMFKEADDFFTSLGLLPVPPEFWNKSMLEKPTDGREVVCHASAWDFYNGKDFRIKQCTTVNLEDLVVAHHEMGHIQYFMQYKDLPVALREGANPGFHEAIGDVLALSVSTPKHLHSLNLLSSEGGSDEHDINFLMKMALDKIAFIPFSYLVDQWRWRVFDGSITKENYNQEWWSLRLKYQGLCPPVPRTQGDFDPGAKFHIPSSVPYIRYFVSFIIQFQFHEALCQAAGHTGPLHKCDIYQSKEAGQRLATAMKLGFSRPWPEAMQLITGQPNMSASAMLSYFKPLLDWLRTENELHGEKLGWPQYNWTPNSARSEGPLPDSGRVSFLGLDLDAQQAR

T1 sequence (P12821 30-1306, species assumed): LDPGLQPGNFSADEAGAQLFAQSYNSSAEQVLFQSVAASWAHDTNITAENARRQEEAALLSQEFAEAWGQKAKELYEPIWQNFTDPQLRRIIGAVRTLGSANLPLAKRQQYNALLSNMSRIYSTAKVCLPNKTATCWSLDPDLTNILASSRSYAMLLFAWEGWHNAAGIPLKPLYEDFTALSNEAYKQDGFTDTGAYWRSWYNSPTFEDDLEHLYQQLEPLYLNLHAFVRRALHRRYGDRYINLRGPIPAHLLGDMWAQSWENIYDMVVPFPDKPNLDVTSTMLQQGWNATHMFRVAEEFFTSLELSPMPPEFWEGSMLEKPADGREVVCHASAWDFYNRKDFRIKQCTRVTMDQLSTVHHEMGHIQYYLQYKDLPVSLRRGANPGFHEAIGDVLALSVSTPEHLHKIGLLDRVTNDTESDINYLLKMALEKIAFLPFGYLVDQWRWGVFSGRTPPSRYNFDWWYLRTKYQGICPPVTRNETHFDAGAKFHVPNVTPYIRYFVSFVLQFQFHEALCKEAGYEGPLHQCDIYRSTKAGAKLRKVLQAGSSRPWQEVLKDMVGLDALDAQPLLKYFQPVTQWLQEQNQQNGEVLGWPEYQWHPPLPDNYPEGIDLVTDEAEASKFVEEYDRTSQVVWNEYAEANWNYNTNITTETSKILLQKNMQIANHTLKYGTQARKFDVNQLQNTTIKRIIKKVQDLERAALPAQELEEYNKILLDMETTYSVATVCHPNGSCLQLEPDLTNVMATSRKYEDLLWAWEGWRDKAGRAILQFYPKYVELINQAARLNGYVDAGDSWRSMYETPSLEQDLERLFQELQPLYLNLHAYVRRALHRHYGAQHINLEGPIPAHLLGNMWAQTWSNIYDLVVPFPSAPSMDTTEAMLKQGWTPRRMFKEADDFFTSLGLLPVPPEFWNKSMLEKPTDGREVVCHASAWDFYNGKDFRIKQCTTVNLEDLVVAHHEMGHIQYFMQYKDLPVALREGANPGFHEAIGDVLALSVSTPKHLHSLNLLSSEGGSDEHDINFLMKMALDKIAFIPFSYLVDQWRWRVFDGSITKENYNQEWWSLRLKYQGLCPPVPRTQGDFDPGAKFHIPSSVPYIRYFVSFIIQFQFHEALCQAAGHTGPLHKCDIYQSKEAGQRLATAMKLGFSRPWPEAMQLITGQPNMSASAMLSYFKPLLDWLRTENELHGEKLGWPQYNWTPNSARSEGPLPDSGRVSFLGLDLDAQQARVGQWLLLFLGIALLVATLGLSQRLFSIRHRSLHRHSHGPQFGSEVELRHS

On to `NCCCC[C@H](N[C@@H](CCc1ccccc1)C(=O)O)C(=O)N1CCC[C@H]1C(=O)O` [Lisinopril], for which, in data set [1] (rat serum), the ORAC came to 0.19 µmol TE/dl. Moreover, in data set [1] (serum ratio), the Cho/HDL is reported as 2.69 and the LDL/HDL was 0.22. In addition, in data set [1] (serum), the ALP stood at 129.75 U/L, the ALT is on record as 41.50 U/L, the AST was 67.75 U/L and the BUN stood at 19.83 mg/dL. In data set [1] (serum), this molecule yielded a Chol of 86.25 mg/dL, a Glucose of 263.00 mg/dL, an HDL of 32.00 mg/dL and an LDL of 7.00 mg/dL. In data set [1] (serum), the Tri amounted to 179.25 mg/dL and the VLDL was determined as 35.75 mg/dL. Moreover, in data set [2], the “serum concentration of nitrate” value turned out to be 15.05 ± 1.95 ng/µL; the “serum concentration of nitrite” value came to 16.17 ± 2.99 ng/µL; the “serum concentration of total nitrate and nitrite (NOx)” value turned out to be 31.22 ± 4.94 ng/µL. For the same molecule, the “serum concentration of AGE II” value in data set [3] is 5.19 (4.82) pg/mL. Besides, the “effect on rat BWs” value in data set [4] is “not significantly affected”. Also, in data set [5], the “weight of the livers” value is given as “significantly lower”. In addition, in data set [6], the “platelet count and white blood cell levels” value is recorded as “did not affect”.
`N[C@@H](Cc1ccc(O)cc1)C(=O)N[C@@H](CO)C(=O)N[C@@H](Cc1ccccc1)C(=O)O` [Tyr-Ser-Phe] (H-Tyr-Ser-Phe-OH; N-terminus and C-terminus assumed): the IC50 at ACE stood at 44.2 µM.
For DLSSAP [Asp-Leu-Ser-Ser-Ala-Pro], the IC50 on ACE is 4.75 µM. In data set [1] (serum), this molecule displayed an ALP of 135.00 U/L, an ALT of 31.50 U/L, an AST of 67.00 U/L and a BUN of 19.70 mg/dL. Besides, the “weight of the livers” value in data set [5] is recorded as “significantly lower”.
DSVSASP [Asp-Ser-Val-Ser-Ala-Ser-Pro]: on ACE, the IC50 worked out at 117 µM. In data set [1] (serum), this molecule came in with an ALP of 159.00 U/L, an ALT of 38.50 U/L, an AST of 74.00 U/L and a BUN of 20.33 mg/dL. Moreover, in data set [5], the “weight of the livers” value was “significantly lower”.
As for “EGSGKGVR [Glu-Gly-Ser-Gly-Lys-Gly-Val-Arg]”, the IC50 at ACE turned out to be 87.2 µM.
Consider “HCGDGDAPY [His-Cys-Gly-Asp-Gly-Asp-Ala-Pro-Tyr]”, for which the IC50 at ACE stood at 103 µM.
As to HVLSA [His-Val-Leu-Ser-Ala], the IC50 at ACE was 10 µM.
Turning to “LDSKHEAP [Leu-Asp-Ser-Lys-His-Glu-Ala-Pro]”, the IC50 at ACE came out at 121 µM.
The same measure, in the same setting: the value for “PTTKTNVPPHF [Pro-Thr-Thr-Lys-Thr-Asn-Val-Pro-Pro-His-Phe]” was 119 µM.
In data set [7], Tyr-Ser-Phe (peptide) yielded an IC50 (µM) ACE inhibition (ACE inhibitory activity assay kit, absorbance at 450 nM) of 44.2 µM.
The molecule PTTKTNVPPHF [Pro-Thr-Thr-Lys-Thr-Asn-Val-Pro-Pro-His-Phe] displayed an IC50 (µM) ACE inhibition (ACE inhibitory activity assay kit, absorbance at 450 nM) in data set [7] of 119 µM.
For the molecule HVLSA [His-Val-Leu-Ser-Ala], the IC50 (µM) ACE inhibition (ACE inhibitory activity assay kit, absorbance at 450 nM) in data set [7] came to 10 µM.
Same read-out and setting: then HCGDGDAPY [His-Cys-Gly-Asp-Gly-Asp-Ala-Pro-Tyr], with 103 µM; and DSVSASP [Asp-Ser-Val-Ser-Ala-Ser-Pro], with 117 µM; and LDSKHEAP [Leu-Asp-Ser-Lys-His-Glu-Ala-Pro], with 121 µM.
Still for that read-out and setting: then EGSGKGVR [Glu-Gly-Ser-Gly-Lys-Gly-Val-Arg], with 87.2 µM; and DLSSAP [Asp-Leu-Ser-Ser-Ala-Pro], with 4.75 µM.

The values are drawn from paper PMC10410819, “Potential antihypertensive activity of novel peptides from green basil leaves” (BMC Complementary Medicine and Therapies, 2023).
